In US7022699B2, “Cyclohexenyl phenyl diazepines vasopressin and oxytocin receptor modulators” (Wyeth, priority 2001, dated 2006):

target: T1, human vasopressin V1a receptor subtype (Homo sapiens, UniProt P37288); test: Vasopressin binding in CHO cell membranes expressing human vasopressin V1a subtype receptors ([3H]Manning ligand); details: 100 nM, values without parentheses
T1 construct: host or cells: CHO cells, stably transfected (pZeoSV vector for the Thibonnier cells); membranes
Excerpt: Vasopressin Binding in Chinese Hamster Ovary Cell Membranes Expressing Human Vasopressin V1a Subtype Receptors
Chinese hamster ovary cells (CHO cells) stably transfected with the human vasopressin V1a subtype receptors were either obtained from Biosignal Inc., 1744 rue Williams, Montreal, Quebec, Canada or obtained from M. Thibonnier, Case Western Reserve University School of Medicine, Cleveland, Ohio. A. Passaging and Amplification of Cells: CHO cells transfected with the human vasopressin V1a subtype receptors obtained from M. Thibonnier (pZeoSV vector) are allowed to grow to confluency (approx. >90%) in T-150 flasks under sterile conditions, in a cell culture medium of F-12 Nutrient Mixture (HAM) with L-glutamine (Gibco Cat. #11765-054) containing 15 mM HEPES (Gibco Cat. #15630-080), 1% antibiotic/antimycotic (add 5 mL 100×, Gibco Cat. #15240-062 per 500 mL F-12), 250 μg/mL Zeocin (add 1.25 mL of 100 mg/mL Invitrogen R-250-01 per 500 mL F-12) and 10% Fetal Bovine Serum (Qualified, heat inactivated, Gibco Cat. #16140-063). The medium is removed by aspiration and the cells are washed with 10 mL of Hank's Balanced Salt solution (Gibco Cat. #14175-095). The salt solution is removed by aspiration and the cells are trypsinized with 5 mL of trypsin-EDTA (0.05% trypsin, 0.53 mM EDTA-4Na, Gibco Cat. #25300-070) for 1 min. The trypsin is removed by aspiration and the cells dislodged by tapping. Cell Culture medium (eg, 30 mL for 1:30 split) is immediately added and mixed well to inactivate trypsin. 1 mL of detached cells is added to new culture flasks containing fresh cell culture medium (eg, into 25 mL per T-150 flask), and mixed gently. The cells are incubated at 37° C. in 5% CO2. The medium is changed at 3 to 4 days interval (or as appropriate). The cells grow to confluency (approx. >75%–95%) within 7–8 days. All steps are done under sterile conditions. B. Membrane Preparation: The cells are washed twice gently with Hank's Balanced Salt solution (e.g.,. use 10 mL per T-150 flask). The excess is removed and the cells are bathed for 15–30 min. in an enzyme-free Cell Dissociation Buffer (e.g. use 8 mL Hank's Based, Gibco Cat. #13150-016 per T-150 flask) until the cells are loosened. The contents are transferred to centrifuge tubes (50 mL size) kept in ice bath. All subsequent steps are done at 4° C. The tubes are centrifuged at 300×g for 15 min (1380 rpm on SORVAL, Model RT6000D, using rotor for 50 mL tubes). The supernatant is discarded and the cells suspended in homogeneizing buffer (10 mM Tris-HCl containing 0.25 M sucrose and 1 mM EDTA, pH 7.4) ensuring that the volume of the buffer is about ten times the volume of the cell pellet. The cells are pooled into a centrifuge tube (50 mL) and homogenized with Polytron at setting 6 for 10 sec. The homogenate is transferred into a Potter-Elvjehm homogenizer and homogenized with 3 strokes. The homogenate is centrifuged at 1500×g for 10 min at 4° C. (3100 rpm using SORVAL, model RT6000D, using rotor for 50 mL tubes). The pellet is discarded. The supernatant is centrifuged at 100,000×g for 60 min. at 4° C. (Beckman L8-80M ultracentrifuge; spin at 37,500 rpm with rotor type 70 Ti for 50 mL tubes; 38,000 rpm with type 80Ti for 15 mL tubes; or 35,800 rpm with rotor type 45Ti). The supernantant is discarded and the pellet suspended in 3 to 4 mL of Tris buffer (50 mM TRIS-HCl, pH 7.4). The protein content is estimated by the Bradford or Lowry method. The volume of the membrane suspension is adjusted with the membrane buffer (50 mM Tris-HCl containing 0.1% BSA and 0.1 mM PMSF) to give 3.0 mg/mL (or as appropriate) of protein. The membranes are aliquoted and stored at −70° C. C. […]

T1 sequence (P37288 whole entry): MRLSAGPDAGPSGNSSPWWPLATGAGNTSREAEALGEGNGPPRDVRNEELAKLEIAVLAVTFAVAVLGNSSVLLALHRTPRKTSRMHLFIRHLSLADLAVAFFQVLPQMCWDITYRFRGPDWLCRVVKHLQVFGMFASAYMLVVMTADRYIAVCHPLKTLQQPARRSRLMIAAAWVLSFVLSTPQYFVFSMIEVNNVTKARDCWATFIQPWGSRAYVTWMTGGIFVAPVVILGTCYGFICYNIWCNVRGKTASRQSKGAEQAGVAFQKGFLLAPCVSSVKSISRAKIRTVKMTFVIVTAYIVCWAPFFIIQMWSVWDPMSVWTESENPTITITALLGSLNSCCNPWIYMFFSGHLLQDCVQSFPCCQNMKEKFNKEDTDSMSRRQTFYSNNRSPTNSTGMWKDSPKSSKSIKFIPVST

Structure (SMILES)	inhibition at 0.1 µM [%]	V1a % inhibition @ 100 nM [%]
CC1=C(c2ccc(C(=O)N3Cc4cccn4Cc4ccccc43)cc2C)CCCC1O (racemic) [Example 5, (10,11-Dihydro-5H-pyrrolo[2,1-c][1,4]benzodiazepin-10-yl)-[4-(3-hydroxy-2-methyl-cyclohex-1-en-1-yl)-3-methyl-phenyl]-methanone]	0	–
CC1=C(c2ccc(C(=O)N3Cc4cccn4Cc4ccccc43)cc2C)CCC[C@H]1O (single isomer, unassigned) [Example 41]	36	–
CC1=C(c2ccc(C(=O)N3Cc4cccn4Cc4ccccc43)cc2C)CCC[C@@H]1O (single isomer, unassigned) [Example 43]	93	–
Cc1cc(C(=O)N2Cc3cccn3Cc3ccccc32)ccc1C1=CCCCC1 [Example 2, (10,11-Dihydro-5H-pyrrolo[2,1-c][1,4]benzodiazepin-10-yl)-(4-cyclohex-1-en-1-yl-3-methyl-phenyl)-methanone]	74	–
CC1=C(c2ccc(C(=O)N3Cc4cccn4Cc4ccccc43)cc2C)CCCC1=O [Example 4, 3-[2-Methyl-4-(5H-pyrrolo[2,1-c][1,4]benzodiazepin-10(11H)-yl-carbonyl)phenyl]-2-methyl-cyclohex-2-en-1-one]	7	–
CC1=C(c2ccc(C(=O)N3Cc4cccn4Cc4ccccc43)cc2C)CCC[C@H]1O [Example 6, (10,11-Dihydro-5H-pyrrolo[2,1-c][1,4]benzodiazepin-10-yl)-[4-((3R)-3-hydroxy-2-methyl-cyclohex-1-en-1-yl)-3-methyl-phenyl]-methanone]	45	–
COc1cc(C2=CCCc3ccccc32)c(Cl)cc1C(=O)N1Cc2cccn2Cc2ccccc21 [Example 8, 10-[5-Chloro-4-(3,4-dihydro-naphthalen-1-yl)-2-methoxybenzoyl]-10,11-dihydro-5H-pyrrolo[2,1-c][1,4]benzodiazepine]	-9	–
COc1cc(C2=C(C)C(=O)CCC2)c(Cl)cc1C(=O)N1Cc2cccn2Cc2ccccc21 [Example 9, 3-[2-Chloro-5-methoxy-4-(5H-pyrrolo[2,1-c][1,4]benzodiazepin-10(11H)-yl-carbonyl)phenyl]-2-methyl-cyclohex-2-en-1-one]	17	–
O=C(c1ccc(C2=CCCCC2)cc1Cl)N1Cc2cccn2Cc2ccccc21 [Example 10, (10,11-dihydro-5H-pyrrolo[2,1-c][1,4]benzodiazepin-10-yl)-[2-chloro-4-(cyclohex-1-en1-yl)-phenyl]-methanone]	94	–
O=C(c1ccc(C2=CCCc3ccccc32)cc1Cl)N1Cc2cccn2Cc2ccccc21 [Example 11, (10,11-Dihydro-5H-pyrrolo[2,1-c][1,4]benzodiazepin-10-yl)-[2-chloro-4-(3,4-dihydro-naphthalen-1-yl)-phenyl]-methanone]	6	–
CC1=C(c2ccc(C(=O)N3Cc4cccn4Cc4ccccc43)c(Cl)c2)CCCC1=O [Example 13, (10,11-Dihydro-5H-pyrrolo[2,1-c][1,4]benzodiazepin-10-yl)-[2-chloro-4-(2-methyl-3-oxo-cyclohex-1-en-1-yl)-phenyl]-methanone]	95	–
CC1=C(c2ccc(C(=O)N3Cc4cccn4Cc4ccccc43)c(Cl)c2)CCCC1O (centres unmarked) [Example 14, (10,11-Dihydro-5H-pyrrolo[2,1-c][1,4]benzodiazepin-10-yl)-[2-chloro-4-(3-hydroxy-2-methyl-cyclohex-1-en-1-yl)-phenyl]-methanone]	10	–
O=C(c1ccc(C2=CCCc3ccccc32)cc1)N1Cc2cccn2Cc2ccccc21 [Example 18, (10,11-Dihydro-5H-pyrrolo[2,1-c][1,4]benzodiazepin-10-yl)-[4-(3,4-dihydro-naphthalen-1-yl)-phenyl]-methanone]	51	–
O=C(c1ccc(C2=CCC3CCC2C3)cc1)N1Cc2cccn2Cc2ccccc21 (centres unmarked) [Example 21]	–	37
O=C1C=C(c2ccc(C(=O)N3Cc4cccn4Cc4ccccc43)cc2)CCC1 [Example 24, 3-[4-(10,11-Dihydro-5H-pyrrolo[2,1-c][1,4]benzodiazepine-10-carbonyl)-phenyl]-cyclohex-2-en-1-one]	49	–

Further lines, results first:

inhibition at 0.1 µM [%]	V1a % inhibition @ 100 nM [%]	Structure (SMILES)
54	–	CC1(C)CCCC=C1c1ccc(C(=O)N2Cc3cccn3Cc3ccccc32)c(Cl)c1 [Example 12, (10,11-Dihydro-5H-pyrrolo[2,1-c][1,4]benzodiazepin-10-yl)-[2-chloro-4-(6,6-dimethyl-cyclohex-1-en-1-yl)-phenyl]-methanone]
51	–	CC1(C)CCCC=C1c1ccc(C(=O)N2Cc3cccn3Cc3ccccc32)cc1 [Example 17, (10,11-Dihydro-5H-pyrrolo[2,1-c][1,4]benzodiazepin-10-yl)-[4-(6,6-dimethyl-cyclohex-1-en-1-yl)-phenyl]-methanone]
23	–	CC1=C(c2ccc(C(=O)N3Cc4cccn4Cc4ccccc43)cc2)C(C)CCC1 (centres unmarked) [Example 19, (10,11-Dihydro-5H-pyrrolo[2,1-c][1,4]benzodiazepin-10-yl)-[4-(2,6-dimethyl-cyclohex-1-en-1-yl)-phenyl]-methanone]
–	4	CC(C)(C)C1CCCC=C1c1ccc(C(=O)N2Cc3cccn3Cc3ccccc32)cc1 (centres unmarked) [Example 20, (10,11-5H-Dihydro-pyrrolo[2,1-c][1,4]benzodiazepin-10-yl)-[4-(6-tert-butyl-cyclohex-1-en-1-yl)-phenyl]-methanone]
13	–	CC1(C)C2CC=C(c3ccc(C(=O)N4Cc5cccn5Cc5ccccc54)cc3)C1C2 (centres unmarked) [Example 22, (10,11-Dihydro-5H-pyrrolo[2,1-c][1,4]benzodiazepin-10-yl)-[4-(6,6-dimethyl-bicyclo[3.1.1]hept-2-en-2-yl)-phenyl]-methanone]
-10	–	CC1(C)C=C(c2ccc(C(=O)N3Cc4cccn4Cc4ccccc43)cc2)CC(C)(C)C1 [Example 23, (10,11-Dihydro-5H-pyrrolo[2,1-c][1,4]benzodiazepin-10-yl)-[4-(3,3,5,5-tetramethyl-cyclohex-1-en-1-yl)-phenyl]-methanone]

same assay, conditions: values in parentheses

Structure (SMILES)	IC50 [nM]
COc1cc(C2=CCCCC2)c(Cl)cc1C(=O)N1Cc2cccn2Cc2ccccc21 [Example 1, 10-(5-Chloro-4-cyclohex-1-en-1-yl-2-methoxybenzoyl)-10,11-dihydro-5H-pyrrolo[2,1-c][1,4]benzodiazepine]	232
Cc1cc(C(=O)N2Cc3cccn3Cc3ccccc32)ccc1C1=CCCc2ccccc21 [Example 3, (10,11-Dihydro-5H-pyrrolo[2,1-c][1,4]benzodiazepin-10-yl)-[4-(3,4-dihydro-naphthalen-1-yl)-3-methyl-phenyl]-methanone]	432
CC1=C(c2ccc(C(=O)N3Cc4cccn4Cc4ccccc43)cc2)CCCC1 [Example 7, (10,11-Dihydro-5H-pyrrolo[2,1-c][1,4]benzodiazepin-10-yl)-[4-(2-methyl-cyclohex-1-en-1-yl)-phenyl]-methanone]	45.7

Further lines, results first:

IC50 [nM]	Structure (SMILES)
35.3	O=C(c1ccc(C2=CCCCC2)cc1)N1Cc2cccn2Cc2ccccc21 [Example 15, (10,11-Dihydro-5H-pyrrolo[2,1-c][1,4]benzodiazepin-10-yl)-(4-cyclohex-1-en-1-yl-phenyl)-methanone]
77.8	CC1CCCC=C1c1ccc(C(=O)N2Cc3cccn3Cc3ccccc32)cc1 (centres unmarked) [Example 16, (10,11-Dihydro-5H-pyrrolo[2,1-c][1,4]benzodiazepin-10-yl)-[4-(6-methyl-cyclohex-1-en-1-yl)-phenyl]-methanone]
